Tests used:
[1] = test system: C57BL/6 mouse colitis model induced by DSS; assay: C57BL/6 mouse colitis model induced by DSS, daily disease index; type: in vivo; conditions: po, 216 h, 10 mg/kg p.o. BID, Day 0-9, vs vehicle group, read-out: reduction ratio of DAI AUC
Description: To evaluate the drug efficacy of the embodiment compound on the C57BL/6 mouse colitis model induced by DSS (dextran sulfate sodium).
According to the weight of the animal, BioBook software was used to randomly group the animals on day −1 to ensure that the weight values of each group of animals were similar to reduce deviation, and the grouping and dosing regimen are shown in the following Table.
Drinking water containing DSS: an appropriate amount of DSS powder was dissolved in the autoclaved drinking water to prepare a 2% DSS solution.
On day −1, the animals were equally divided into 12 groups with 10 animals in each group. (Refer to Table 1 for specific grouping scheme)
From 9:00 on day 0 to 9:00 on day 6, the mice in groups 2 to 9 were given 2% DSS aqueous solution for 6 days (from day 0 to day 6), after which the mice were allowed to freely drink normal water for 3 days (from 9:00 on day 6 to before necropsy on day 9). The day of modeling was counted as day 0. The DSS aqueous solution was wrapped in tin foil to protect it from light. The DSS aqueous solution was replaced every 2 days.
The mice in group 1 are allowed to drink normal water freely for 9 days (from 9:00 on day 0 to before necropsy on day 9).
The recording frequency was once a day, and 4 levels were rated according to the following standards:
Bloody stool (0: negative; 4: positive);
Stool score (0: normal; 2: loose stool; 4: diarrhea)
Daily Disease Index (DAI) was obtained by dividing the sum the scores of the above 3 parts by 3. DAI-time (day) curve based on the daily DAI score was plotted, and the peak area (AUC) under the curve was calculated. The reduction ratio of DAI AUC was calculated by comparing the administration group with the vehicle group, with a calculation formula of (DAI AUCadministration group-DAI AUCvehicle)/DAI AUCVehicle×100%

[2] = target: JAK2 (Homo sapiens, UniProt O60674); assay: JAK kinase activity inhibition, TR-FRET (JAK2); type: biochemical; conditions: TR-FRET kinase assay
Chain of JAK2 (O60674 whole entry): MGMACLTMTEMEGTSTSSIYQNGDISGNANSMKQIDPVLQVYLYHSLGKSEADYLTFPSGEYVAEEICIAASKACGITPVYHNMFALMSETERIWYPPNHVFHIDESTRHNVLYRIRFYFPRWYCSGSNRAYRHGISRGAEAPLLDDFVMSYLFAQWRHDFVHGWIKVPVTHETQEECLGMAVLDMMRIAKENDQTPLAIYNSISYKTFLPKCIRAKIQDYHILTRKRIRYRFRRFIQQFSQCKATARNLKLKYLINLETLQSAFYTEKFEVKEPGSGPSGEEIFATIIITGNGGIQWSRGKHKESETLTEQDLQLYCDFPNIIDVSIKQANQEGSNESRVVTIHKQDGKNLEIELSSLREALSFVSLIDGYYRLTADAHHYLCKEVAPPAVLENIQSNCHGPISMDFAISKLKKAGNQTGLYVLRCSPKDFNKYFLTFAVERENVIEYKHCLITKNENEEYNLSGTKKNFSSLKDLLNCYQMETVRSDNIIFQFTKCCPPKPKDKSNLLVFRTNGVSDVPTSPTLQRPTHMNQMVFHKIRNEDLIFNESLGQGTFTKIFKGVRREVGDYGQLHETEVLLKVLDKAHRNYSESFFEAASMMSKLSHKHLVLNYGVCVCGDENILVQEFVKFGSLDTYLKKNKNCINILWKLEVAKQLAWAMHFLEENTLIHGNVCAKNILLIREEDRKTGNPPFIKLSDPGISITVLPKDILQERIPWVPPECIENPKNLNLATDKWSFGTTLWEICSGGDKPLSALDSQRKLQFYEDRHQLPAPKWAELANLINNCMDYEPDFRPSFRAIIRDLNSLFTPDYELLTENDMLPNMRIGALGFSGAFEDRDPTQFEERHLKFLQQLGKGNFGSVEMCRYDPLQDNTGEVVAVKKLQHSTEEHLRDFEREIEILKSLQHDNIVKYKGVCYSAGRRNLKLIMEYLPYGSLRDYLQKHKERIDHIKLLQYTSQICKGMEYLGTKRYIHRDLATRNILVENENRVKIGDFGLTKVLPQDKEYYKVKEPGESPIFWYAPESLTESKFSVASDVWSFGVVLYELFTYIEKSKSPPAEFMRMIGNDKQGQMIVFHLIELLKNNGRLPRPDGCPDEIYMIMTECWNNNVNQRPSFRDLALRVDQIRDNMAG
Summary of the method: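 Enzymatic inhibition measured by time-resolved FRET using 0.1-20 nM kinase with peptide substrate and ATP, reacted 0.5-5 hours at room temperature. Percent inhibition was normalized to DMSO (no inhibitor) and kinase-free wells, and concentration-response data were fitted with a 4-parameter logistic model.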

Row | Structure (SMILES) | change in vivo at 10 mg/kg [1] [%] | IC50 [2] [nM]
1 | Cc1cc(Nc2nc(N[C@@H]3C[C@H]4CC[C@@H](C3)N4CCC#N)nc3cc(Br)ccc23)n[nH]1 [Embodiment 170, 3-((3-exo)-3-((7-bromine-4-((5-methyl-1H-pyrazol-3-yl)amino)quinazolin-2-yl)amino)-8-azabicyclo[3.2.1]oct-8-yl)propionitrile] | -27.9 | –
2 | Cc1cc(Nc2nc(N[C@@H]3C[C@H]4CC[C@@H](C3)N4S(=O)(=O)N3CC(C#N)C3)nc3sccc23)n[nH]1 [Embodiment 237, 1-(((3-exo)-3-((4-((5-methyl-1H-pyrazol-3-yl)amino)thieno[2,3-d]pyrimidin-2-yl)amino)-8-azabicyclo[3.2.1]oct-8-yl)sulfonyl)azetindin-3-formonitrile] | – | 0.79
3 | COc1ccc2c(Nc3cc(C)[nH]n3)nc(N[C@@H]3C[C@H]4CC[C@@H](C3)N4CCC#N)nc2c1 [Embodiment 169, 3-((3-exo)-3-((7-methoxyl-4-((5-methyl-1H-pyrazol-3-yl)amino)quinazolin-2-yl)amino)-8-azabicyclo[3.2.1]oct-8-yl)propionitrile] | -34.3 | 1.07
4 | Cc1cc(Nc2nc(N[C@@H]3C[C@H]4CCC[C@@H](C3)N4S(=O)(=O)N3CC(C#N)C3)nc3sccc23)n[nH]1 [Embodiment 238] | – | 0.44
5 | Cc1cc(Nc2nc(N[C@@H]3C[C@H]4CC[C@@H](C3)N4S(=O)(=O)N3CC(C#N)C3)nc3ccccc23)n[nH]1 [Embodiment 213, 1-(((3-exo)-3-((4-((5-methyl-1H-pyrazol-3-yl)amino)quinazolin-2-yl)amino)-8-azabicyclo[3.2.1]oct-8-yl)sulfonyl)azetindin-3-formonitrile] | -24.4 | 0.3
6 | Cc1cc(Nc2nc(N[C@@H]3C[C@H]4CCC[C@@H](C3)N4CCC#N)nc3scnc23)n[nH]1 [Embodiment 278, 3-((3-exo)-3-((7-((5-methyl-1H-pyrazol-3-yl)amino)thiazolo[5,4-d]pyrimidin-5-yl)amino)-9-azabicyclo[3.3.1]non-9-yl)propionitrile] | -34.9 | 1.34
7 | Cc1cc(Nc2nc(N[C@@H]3C[C@H]4CCC[C@@H](C3)N4C(=O)c3ccccn3)nc3sccc23)n[nH]1 [Embodiment 260, ((3-exo)-3-((4-((5-methyl-1H-pyrazol-3-yl)amino)thieno[2,3-d]pyrimidin-2-yl)amino)-9-azabicyclo[3.3.1]non-9-yl)(pyridin-2-yl)methanone] | -23.4 | 0.36
8 | Cc1cc(Nc2nc(N[C@@H]3C[C@H]4CCC[C@@H](C3)N4C(=O)CN3CCOCC3)nc3sccc23)n[nH]1 [Embodiment 246, 1-((3-exo)-3-((4-((5-methyl-1H-pyrazol-3-yl)amino)thieno[2,3-d]pyrimidin-2-yl)amino)-9-azabicyclo[3.3.1]non-9-yl)-2-morpholinoethane-1-one] | -38.6 | 0.71
9 | Cc1cnc(Nc2cc3ncccc3c(N[C@@H]3C[C@H]4CC[C@@H](C3)N4CCC#N)n2)s1 [Embodiment 1, 3-((3-exo)-3-((7-((5-methylthioazol-2-yl)amino)-1,6-diazanaphthalen-5-yl)amino)-8-azabicyclo[3.2.1]oct-8-yl)propionitrile] | – | 0.69
10 | Cc1cc(Nc2nc(N[C@@H]3C[C@H]4CC[C@@H](C3)N4CCC#N)nc3ccsc23)n[nH]1 [Embodiment 60, 3-((3-exo)-3-((4-((5-methyl-1H-pyrazol-3-yl)amino)thieno[3,2-d]pyrimidin-2-yl)amino)-8-azabicyclo[3.2.1]oct-8-yl)propionitrile] | -20.8 | –
11 | Cc1cc(Nc2nc(N[C@@H]3C[C@H]4CC[C@@H](C3)N4S(=O)(=O)N3CC(C#N)C3)nc3cc(Cl)ccc23)n[nH]1 [Embodiment 214] | -28.9 | 0.82
12 | Cc1cc(Nc2nc(N[C@@H]3C[C@H]4CC[C@@H](C3)N4CCC#N)nc3sc(C)cc23)n[nH]1 [Embodiment 277, 3-((3-exo)-3-((6-methyl-4-((5-methyl-1H-pyrazol-3-yl)amino)thieno[2,3-d]pyrimidin-2-yl)amino)-8-azabicyclo[3.2.1]oct-8-yl)propionitrile] | – | 1.01
13 | Cc1cc(Nc2nc(N(C)[C@@H]3C[C@H]4CCC[C@@H](C3)N4C(=O)CN3CCN(C)CC3)nc3sccc23)n[nH]1 [Embodiment 257, 1-((3-exo)-3-(methyl(4-((5-methyl-1H-pyrazol-3-yl)amino)thieno[2,3-d]pyrimidin-2-yl)amino)-9-azabicyclo[3.3.1]non-9-yl)-2-(4-methylpiperazin-1-yl)ethane-1-one] | – | 0.83
14 | Cc1cc(Nc2nc(N[C@@H]3C[C@H]4CC[C@@H](C3)N4CCC#N)nc3cc(Cl)ccc23)n[nH]1 [Embodiment 171, 3-((3-exo)-3-((7-chloro-4-((5-methyl-1H-pyrazol-3-yl)amino)quinazolin-2-yl)amino)-8-azabicyclo[3.2.1]oct-8-yl)propionitrile] | – | 0.67
15 | CNCC(=O)N1[C@@H]2CCC[C@H]1C[C@H](Nc1nc(Nc3cc(C)[nH]n3)c3ccsc3n1)C2 [Embodiment 247, 1-((3-exo)-3-((4-((5-methyl-1H-pyrazol-3-yl)amino)thieno[2,3-d]pyrimidin-2-yl)amino)-9-azabicyclo[3.3.1]non-9-yl)-2-(methylamino)-ethane-1-one] | -22.1 | 0.73

Reference: patent US20230043863A1, “HETEROAROMATIC DERIVATIVES FOR USE AS REGULATOR, PREPARATION METHOD THEREFOR AND USE THEREOF” (JIANGSU HANSOH PHARMACEUTICAL GROUP CO., LTD., priority 2018, published 2023)
